15 molecules from patent US10981879B2, “Thioether triazolopyridine and triazolopyrimidine inhibitors of myeloperoxidase” (BRISTOL-MYERS SQUIBB COMPANY, priority 2014, dated 2021) can be followed below.

myeloperoxidase (MPO), sequence (P05164 49-745): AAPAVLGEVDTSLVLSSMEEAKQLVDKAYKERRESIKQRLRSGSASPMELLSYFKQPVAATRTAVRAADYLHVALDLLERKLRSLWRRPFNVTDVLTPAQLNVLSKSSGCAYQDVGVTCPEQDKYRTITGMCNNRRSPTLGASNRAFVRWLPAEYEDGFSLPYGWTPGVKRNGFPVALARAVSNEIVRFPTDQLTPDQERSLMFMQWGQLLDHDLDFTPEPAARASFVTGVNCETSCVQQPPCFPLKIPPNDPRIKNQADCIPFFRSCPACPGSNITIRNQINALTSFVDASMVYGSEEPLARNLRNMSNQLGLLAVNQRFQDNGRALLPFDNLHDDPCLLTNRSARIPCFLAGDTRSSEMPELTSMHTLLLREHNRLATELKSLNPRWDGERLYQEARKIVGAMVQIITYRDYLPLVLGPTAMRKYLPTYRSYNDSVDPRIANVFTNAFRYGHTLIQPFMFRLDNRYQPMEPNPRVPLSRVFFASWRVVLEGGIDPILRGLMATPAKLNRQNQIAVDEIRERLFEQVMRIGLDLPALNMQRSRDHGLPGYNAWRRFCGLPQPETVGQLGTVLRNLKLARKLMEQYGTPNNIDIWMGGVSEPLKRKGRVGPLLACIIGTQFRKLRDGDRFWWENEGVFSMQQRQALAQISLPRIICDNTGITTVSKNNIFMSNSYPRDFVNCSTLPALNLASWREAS

The target of the assay is myeloperoxidase (MPO) (Homo sapiens (Human), UniProt P05164). Kind of assay: MPO chlorination assay (APF). It counts as biochemical. The settings on record: MPO chlorination assay, ranges given; read-out: MPO chlorination assay IC50. In short, it runs like this:
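Human MPO (200 pM) with 120 mM NaCl preincubated with inhibitor 10 minutes at rt in 100 mM KPi pH 7.4. Reaction started with APF mixture containing 10 μM H2O2; fluorescein fluorescence (ex 485/em 535 nm) read kinetically 3 minutes. IC50 from slopes of linear kinetic portion, fitted with a four-parameter Hill equation.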
Regarding `COc1cccc(-n2nc(C)c(CSc3cc(N)nc4[nH]nnc34)n2)c1` [Example 69, 7-(((2-(3-methoxyphenyl)-5-methyl-2H-1,2,3-triazol-4-yl)methyl)thio)-3H-[1,2,3] triazolo[4,5-b]pyridin-5-amine], the IC50 was in the range of 0.2 to 1 µM. On to `N#Cc1cccc(C2CC2)c1CSc1cc(N)nc2[nH]nnc12` [Example 89, 2-(((5-amino-3H-[1,2,3]triazolo[4,5-b]pyridin-7-yl)thio)methyl)-3-cyclopropylbenzonitrile], for which the half-inhibitory concentration (IC50) lay within 0.06 to 0.2 µM. Then `COC(=O)c1ccc2nc(CSc3cc(N)nc4[nH]nnc34)ccc2c1` [Example 31, methyl 2-(((5-amino-3H-[1,2,3]triazolo[4,5-b]pyridin-7-yl)thio)methyl)quinoline-6-carboxylate], with 0.2 to 1 µM; and `Cc1nn(CC2CC2)c(C)c1CSc1cc(N)nc2[nH]nnc12` [Example 80, 7-(((1-(cyclopropylmethyl)-3,5-dimethyl-1H-pyrazol-4-yl)methyl)thio)-3H-[1,2,3] triazolo[4,5-b]pyridin-5-amine], with 0.06 to 0.2 µM.

As for `Cc1nn(C)c(Cl)c1CSc1cc(N)nc2[nH]nnc12` [Example 60, 7-(((5-chloro-1,3-dimethyl-1H-pyrazol-4-yl)methyl)thio)-3H-[1,2,3]triazolo[4,5-b]pyridin-5-amine], the half-maximal inhibitory concentration (IC50) was at most 0.06 µM.

For `CN(C)Cc1cccc(-n2cc(CSc3cc(N)nc4[nH]nnc34)c(C(F)F)n2)c1` [Example 148, 7-(((3-(difluoromethyl)-1-(3-((dimethylamino)methyl)phenyl)-1H-pyrazol-4-yl)methyl)thio)-3H-[1,2,3]triazolo [4,5-b]pyridin-5-amine], the IC50 is at most 0.06 µM.

`Nc1cc(SC(CCCNCc2ccccc2)c2ccccc2)c2nn[nH]c2n1` (stereo not drawn) [Example 14, 7-((4-(Benzylamino)-1-phenylbutyl)thio)-3H-[1,2,3]triazolo[4,5-b]pyridin-5-amine]: the IC50 is at most 0.06 µM. The result for `Cn1nc(-c2ccccc2)c(CSc2cc(N)nc3[nH]nnc23)c1Cl` [Example 71, 7-(((5-chloro-1-methyl-3-phenyl-1H-pyrazol-4-yl)methyl)thio)-3H-[1,2,3] triazolo[4,5-b]pyridin-5-amine] reads 0.2 to 1 µM; that for `Nc1cc(SC(C(=O)c2ccccc2)c2ccccc2)c2nn[nH]c2n1` (stereo not drawn) [Example 40, 2-((5-amino-3H-[1,2,3]triazolo[4,5-b]pyridin-7-yl)thio)-1,2-diphenylethanone], 0.2 to 1 µM; that for `CS(=O)(=O)c1ccc(F)cc1CSc1cc(N)nc2[nH]nnc12` [Example 53, 7-((5-fluoro-2-(methylsulfonyl)benzyl)thio)-3H-[1,2,3]triazolo[4,5-b]pyridin-5-amine], 0.06 to 0.2 µM. Then `Nc1cc(SCc2cc(Cl)cc(S(N)(=O)=O)c2Cl)c2nn[nH]c2n1` [Example 118, 3-(((5-amino-3H-[1,2,3]triazolo[4,5-b]pyridin-7-yl)thio)methyl)-2,5-dichlorobenzenesulfonamide], with at most 0.06 µM; and `Nc1cc(SCc2ccccc2C(F)(F)F)c2nn[nH]c2n1` [Example 5, 7-((2-(trifluoromethyl)benzyl)thio)-3H-[1,2,3] triazolo[4,5-b]pyridin-5-amine], with at most 0.06 µM. The result for `Cn1nc(-c2ccccc2)c(Cl)c1CSc1cc(N)nc2[nH]nnc12` [Example 112, 7-(((4-chloro-1-methyl-3-phenyl-1H-pyrazol-5-yl)methyl)thio)-3H-[1,2,3] triazolo[4,5-b]pyridin-5-amine] reads at most 0.06 µM. Take `Cc1nn(-c2cccc(F)c2)nc1CSc1cc(N)nc2[nH]nnc12` [Example 67, 7-(((2-(3-fluorophenyl)-5-methyl-2H-1,2,3-triazol-4-yl)methyl)thio)-3H-[1,2,3] triazolo[4,5-b]pyridin-5-amine]: the IC50 lay within 0.2 to 1 µM.

With `Nc1cc(SC(CNCc2ccccc2)c2ccccc2)c2nn[nH]c2n1` (stereo not drawn) [Example 128, 7-((2-(Benzylamino)-1-phenylethyl)thio)-3H-[1,2,3]triazolo[4,5-b]pyridin-5-amine], the IC50 was in the range of 0.06 to 0.2 µM.

By IC50 is commonly meant the concentration at which inhibition is half-maximal.
